Experimental data: patent publication US20250353852A1, “COMPOUNDS AND COMPOSITIONS THAT INHIBIT PIKFYVE” (Kineta, Inc., priority 2021, published 2025)

Columns and labels:
[1] = test system: PIKFYVE TDP-43 yeast strain; assay: Propidium iodide viability assay, PIKFYVE TDP-43 yeast strain; assay type: cell-based; settings: for PIKfyve TDP-43 (active/inactive): PIKFYVE TDP-43 yeast model
Procedure: (§1) Generation of TDP-43 yeast model expressing human PIKfyve. Human PIKFYVE (“entry clone”) was cloned into […] (“destination vector”) according to standard Gateway cloning protocols (Invitrogen, Life Technologies). The resulting pAG416GPD-PIKFYVE plasmids were amplified in E. coli and plasmid identity confirmed by restriction digest and Sanger sequencing. […]+) (FIG. 2). Transformed yeast were plated on solid agar plates with complete synthetic media lacking uracil (CSM-ura) and containing 2% glucose. Individual colonies harboring the control or PIKFYVE TDP-43 plasmids were recovered. A plasmid containing wild-type TDP-43 under the transcriptional control of the GAL1 promoter and containing the […] as a selectable marker was transformed into the […]-PIKFYVE yeast strain (FIG. 1). Transformed yeast were plated on CSM-ura containing 2% glucose and 200 μg/mL G418 after overnight recovery in media lacking antibiotic. Multiple independent isolates were further evaluated for cytotoxicity and TDP-43 expression levels. Viability Assay. A control yeast strain with the wild-type yeast FAB1 gene and TDP-43 (“FAB1 TDP-43”, carries empty pAG416 plasmid), and the “PIKFYVE TDP-43” yeast strain, were assessed for toxicity using a propidium iodide viability assay. Both yeast strains were transferred from solid CSM-ura/2% glucose agar plates into 3 mL of liquid CSM-ura/2% glucose media for 6-8 hours at 30° C. with aeration. Yeast cultures were then diluted to an optical density at 600 nm wavelength (OD600) of 0.005 in 3 mL of CSM-ura/2% raffinose and grown overnight at 30° C. with aeration to an OD600 of 0.3-0.8. Log-phase overnight cultures were diluted to OD600 of 0.005 in CSM-ura containing either 2% raffinose or galactose and 150 μL dispensed into each well of a flat bottom 96-well plates. Compounds formulated in 100% dimethyl sulfoxide (DMSO) were serially diluted in DMSO and 1.5 μL diluted compound transferred to the 96-well plates using a multichannel pipet. Wells containing DMSO alone were also evaluated as controls for compound effects. Tested concentrations ranged from 15 μM to 0.11 μM. Cultures were immediately mixed to ensure compound distribution and covered plates incubated at 30° C. for 24 hours in a stationary, humified incubator. Upon the completion of incubation, cultures were assayed for viability using propidium iodide (PI) to stain for dead/dying cells. A working solution of PI was made where, for each plate, 1 μL of 10 mM PI was added to 10 mL of CSM-ura (raffinose or galactose). […] The overnight 96-well assay plate was then mixed with a multichannel pipet and 50 μL transferred to the PI-containing plate. This plate was then incubated for 30 minutes at 30° C. in the dark. A benchtop flow cytometer (Miltenyi MACSquant) was then used to assess red fluorescence (B2 channel), forward scatter, and side scatter (with following settings: gentle mix, high flow rate, fast measurement, 10,000 events). Intensity histograms were then gated for “PI-positive” or “PI-negative” using the raffinose and galactose cultures treated with DMSO as controls. The DMSO controls for raffinose or galactose-containing cultures were used to determine the window of increased cell death and this difference set to 100. All compounds were similarly gated and then compared to this maximal window to establish the percent reduction in PI-positive cells.

FAB1 TDP-43 yeast strain = assay: Propidium iodide viability assay, FAB1 TDP-43 control yeast strain; assay type: cell-based; settings: for FAB1 TDP-43 (active/inactive): FAB1 TDP-43 yeast model
Procedure: as §1

[2] = target: full-length human PIKFYVE (Homo sapiens (Human), UniProt Q9Y2I7, L932S/Q1183K/Q995L/S1033A/S696N/T998S); assay: PIKfyve biochemical assay (ADP-Glo Kinase assay, Carna Biosciences); settings: class symbols
Chain of full-length human PIKFYVE (Q9Y2I7 whole entry S696N/L932S/Q995L/T998S/S1033A/Q1183K, the tested form may be a part): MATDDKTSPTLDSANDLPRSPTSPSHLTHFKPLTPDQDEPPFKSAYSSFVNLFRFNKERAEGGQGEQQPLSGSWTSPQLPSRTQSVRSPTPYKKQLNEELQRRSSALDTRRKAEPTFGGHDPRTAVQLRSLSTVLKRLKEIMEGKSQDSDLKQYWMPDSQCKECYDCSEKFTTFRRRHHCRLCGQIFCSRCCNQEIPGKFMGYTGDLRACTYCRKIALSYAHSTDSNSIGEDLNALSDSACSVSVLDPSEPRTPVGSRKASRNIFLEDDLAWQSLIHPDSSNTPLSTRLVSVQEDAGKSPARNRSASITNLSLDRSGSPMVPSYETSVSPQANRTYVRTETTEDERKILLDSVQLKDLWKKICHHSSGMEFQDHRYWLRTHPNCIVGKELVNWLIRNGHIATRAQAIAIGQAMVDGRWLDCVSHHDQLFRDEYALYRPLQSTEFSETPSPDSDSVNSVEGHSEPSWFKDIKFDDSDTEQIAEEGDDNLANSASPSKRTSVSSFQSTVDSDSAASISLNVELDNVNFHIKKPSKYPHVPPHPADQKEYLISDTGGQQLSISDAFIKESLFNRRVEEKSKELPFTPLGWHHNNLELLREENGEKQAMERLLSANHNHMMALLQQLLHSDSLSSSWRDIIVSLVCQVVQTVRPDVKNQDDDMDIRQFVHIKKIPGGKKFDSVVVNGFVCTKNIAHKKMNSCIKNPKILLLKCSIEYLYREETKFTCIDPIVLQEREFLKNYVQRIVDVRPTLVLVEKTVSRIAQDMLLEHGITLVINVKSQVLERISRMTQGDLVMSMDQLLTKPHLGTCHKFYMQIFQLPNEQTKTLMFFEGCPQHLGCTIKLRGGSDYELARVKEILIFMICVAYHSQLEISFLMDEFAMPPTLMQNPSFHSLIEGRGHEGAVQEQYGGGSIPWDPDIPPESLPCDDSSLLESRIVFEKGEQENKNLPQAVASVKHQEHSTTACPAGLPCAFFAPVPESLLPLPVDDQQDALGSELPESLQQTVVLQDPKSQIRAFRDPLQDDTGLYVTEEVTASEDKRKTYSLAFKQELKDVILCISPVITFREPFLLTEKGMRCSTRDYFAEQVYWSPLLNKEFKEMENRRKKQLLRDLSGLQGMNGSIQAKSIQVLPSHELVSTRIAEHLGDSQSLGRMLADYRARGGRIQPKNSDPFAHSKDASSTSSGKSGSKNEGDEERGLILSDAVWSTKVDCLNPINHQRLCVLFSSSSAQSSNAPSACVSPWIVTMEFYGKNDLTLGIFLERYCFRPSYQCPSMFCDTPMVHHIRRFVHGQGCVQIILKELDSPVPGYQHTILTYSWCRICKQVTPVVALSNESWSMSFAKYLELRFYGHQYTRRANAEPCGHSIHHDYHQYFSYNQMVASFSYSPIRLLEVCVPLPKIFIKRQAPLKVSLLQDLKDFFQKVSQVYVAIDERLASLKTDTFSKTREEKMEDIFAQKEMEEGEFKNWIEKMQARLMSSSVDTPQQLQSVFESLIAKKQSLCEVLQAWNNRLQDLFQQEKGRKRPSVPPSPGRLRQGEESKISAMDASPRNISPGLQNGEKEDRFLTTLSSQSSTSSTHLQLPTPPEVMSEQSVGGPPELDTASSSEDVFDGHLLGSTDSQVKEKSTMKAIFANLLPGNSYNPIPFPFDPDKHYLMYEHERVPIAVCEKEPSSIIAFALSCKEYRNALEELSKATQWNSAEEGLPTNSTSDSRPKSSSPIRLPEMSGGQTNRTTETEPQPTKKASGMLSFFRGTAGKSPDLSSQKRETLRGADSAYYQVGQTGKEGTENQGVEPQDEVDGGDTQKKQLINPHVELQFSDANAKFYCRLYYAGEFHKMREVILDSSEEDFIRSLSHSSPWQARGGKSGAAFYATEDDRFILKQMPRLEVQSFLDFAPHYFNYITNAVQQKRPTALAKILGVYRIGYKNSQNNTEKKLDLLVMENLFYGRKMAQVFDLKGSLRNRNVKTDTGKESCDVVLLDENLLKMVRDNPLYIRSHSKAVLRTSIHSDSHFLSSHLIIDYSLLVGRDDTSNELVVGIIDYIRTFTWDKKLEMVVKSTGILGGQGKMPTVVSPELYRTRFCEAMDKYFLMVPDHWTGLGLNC
Outline: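 N-terminal GST-fused full-length PIKFYVE from baculovirus, incubated with compound, substrate and ATP in 50 mM MOPS, 1 mM DTT, pH7.2 for 1 hour at room temperature. ADP formed detected by ADP-Glo luminescence; IC50 from four-parameter logistic fit of % inhibition.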

U2OS cells = assay: EEA1 assay (endosomal vesicle enlargement as surrogate readout of PIKFyve inhibition); assay type: cell-based; settings: 3 hours of treatment, class symbols
Procedure: EEA1 Assay. Genetic or pharmacological disruption of PIKfyve activity results in enlargement of endosomal vesicles. This enlargement was utilized as a surrogate readout of PIKFyve inhibition for routine triage of PIKfyve inhibitors. U2OS cells grown in 96-well assay plates were treated with compound diluted in DMEM media containing 10% fetal bovine serum. After 3 hours of treatment, cells were fixed with paraformaldehyde, permeabilized with 0.2% Triton-X in phosphate buffered saline and stained against EEA1. During the secondary antibody staining, cells were also stained with CellMask DeepRed and Hoechst to detect cytoplasms and nuclei respectively. Endosomal structures were visualized using a high content imager at 40× magnification. Images were analyzed using a linear classifier algorithm integrating EEA1 spot size, intensity and texture trained on images of cells treated with the potent reference compound APY0201. Compound activity was calculated by subtracting the DMSO signal and calculating percentage activity relative to maximal APY0201 activity. IC50s were then calculated from concentration vs. % inhibition data by logistic regression.

Compound | PIKfyve TDP-43 (active/inactive) [1] | FAB1 TDP-43 (active/inactive) (FAB1 TDP-43 yeast strain) | further results
Cc1cccc(/C=N/Nc2nc(N3CCOCC3)c3nc(-c4ccncc4)n(C)c3n2)c1 [drawing 329] | Active | Inactive | 
CN(C)c1cc(N2CCOCC2)n2nc(-c3ccncc3)cc2n1 | Inactive | Inactive | 
Cc1cccc(/C=N/Nc2cc(N3CCOCC3)n3nc(-c4ccncc4)cc3n2)c1 [APYO201, reference compound] |  |  | population of propidium iodide-positive dead cells in PIKFYVE TDP-43 ([1]; 0.23 μM, FIG. 6): reduced the population of propidium iodide-positive dead cells; viable cells in FAB1 TDP-43 (FAB1 TDP-43 yeast strain; across a range of compound concentrations (only 0.23 μM is shown), FIG. 5): no increase in viable cells
Cn1c(-c2ccncc2)nc2c(N3CCOCC3)ncnc21 | Inactive | Inactive | 
Cc1cccc(/C=N/Nc2cc(N3CC4CC3CO4)n3nc(-c4ccncc4)cc3n2)c1 (stereo not shown) [drawing 328] | Active | Inactive | 
N#Cc1cc(N2CCOCC2)n2nc(-c3ccncc3)cc2n1 [drawing 332] | Inactive | Inactive | 
Cc1cccc(/C=N/Nc2cc(N3CCOCC3)n3nc(-c4ccncc4)cc3n2)c1 [drawing 327] | Active | Inactive | 
COc1nn(-c2cc(N3CCOCC3)n3nccc3n2)cc1-c1ccccc1 [Compound 77, 4-(5-(3-methoxy-4-phenyl-1H-pyrazol-1-yl)pyrazolo[1,5-a]pyrimidin-7-yl)morpholine] |  |  | IC50 [2]: > 10 µM; IC50 (U2OS cells): 1 to 10 µM
